Source: US10336762B2 (priority 2017, dated 2019)

Experiments:
TNFα = test: cells; format: cell-based, human; details: Homo sapiens, Monocyte, LPS-stimulated human monocytes, TNFα content; read-out: EC50 TNF
IRAK4 enzyme = IRAK4 enzyme (Homo sapiens (Human), UniProt Q9NWZ3); test: biochemical; format: biochemical; details: IRAK4 enzyme, TR-FRET, 500 μM ATP
Chain of IRAK4 enzyme (Q9NWZ3 whole entry): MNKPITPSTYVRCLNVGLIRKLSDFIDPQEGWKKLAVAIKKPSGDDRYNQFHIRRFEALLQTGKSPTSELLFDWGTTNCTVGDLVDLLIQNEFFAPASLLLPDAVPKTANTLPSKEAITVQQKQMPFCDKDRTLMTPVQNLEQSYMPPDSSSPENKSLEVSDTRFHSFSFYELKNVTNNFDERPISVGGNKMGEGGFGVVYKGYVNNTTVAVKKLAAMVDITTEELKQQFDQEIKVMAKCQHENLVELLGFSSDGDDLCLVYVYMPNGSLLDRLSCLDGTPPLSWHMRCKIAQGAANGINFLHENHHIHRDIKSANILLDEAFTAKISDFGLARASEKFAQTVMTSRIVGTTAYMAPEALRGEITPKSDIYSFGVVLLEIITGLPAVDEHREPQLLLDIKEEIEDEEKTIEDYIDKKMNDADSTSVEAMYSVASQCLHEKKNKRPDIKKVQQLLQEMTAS

Compound	EC50 (TNFα) [nM]	IC50 (IRAK4 enzyme) [nM]
CC(C)Nc1cc(-c2ccc3cc(C#N)cnn23)ncc1C(=O)NC1CC1CO (stereo not shown) [Example 45, 6-(3-cyanopyrrolo[1,2-b]pyridazin-7-yl)-N-(2-(hydroxymethyl)cyclopropyl)-4-(isopropylamino) nicotinamide]	255	10
CC(C)(O)[C@H](F)CNC(=O)c1cnc(-c2ccc3cc(C#N)cnn23)cc1NC1CCN(S(C)(=O)=O)CC1 [Example 46, (R)-6-(3-cyanopyrrolo[1,2-b]pyridazin-7-yl)-N-(2-fluoro-3-hydroxy-3-methylbutyl)-4-((1-(methylsulfonyl)piperidin-4-yl)amino)nicotinamide]	37	< 1
Cn1cc(Nc2cc(-c3ccc4cc(C#N)cnn34)ncc2C(=O)NC[C@@H](F)C(C)(C)O)cn1 [Example 47, (R)-6-(3-cyanopyrrolo[1,2-b]pyridazin-7-yl)-N-(2-fluoro-3-hydroxy-3-methylbutyl)-4-((1-methyl-1H-pyrazol-4-yl)amino)nicotinamide]	37	< 1
CC(C)(O)[C@H](F)CNC(=O)c1cnc(-c2ccc3cc(C#N)cnn23)cc1Nc1cnn(C(F)F)c1 [Example 48, (R)-6-(3-cyanopyrrolo[1,2-b]pyridazin-7-yl)-4-((1-(difluoromethyl)-1H-pyrazol-4-yl)amino)-N-(2-fluoro-3-hydroxy-3-methylbutyl)nicotinamide]	28	< 1
CC(C)(O)[C@H](F)CNC(=O)c1cnc(-c2ccc3cc(C#N)cnn23)cc1Nc1cnn(CC(F)(F)F)c1 [Example 49, (R)-6-(3-cyanopyrrolo[1,2-b]pyridazin-7-yl)-N-(2-fluoro-3-hydroxy-3-methylbutyl)-4-((1-(2,2,2-trifluoroethyl)-1H-pyrazol-4-yl)amino)nicotinamide]	8	< 1
CC(C)(O)[C@H](F)CNC(=O)c1cnc(-c2ccc3cc(C#N)cnn23)cc1NC1CC2CCC(C1)O2 (stereo partly drawn) [Example 50, 4-(8-oxabicyclo[3.2.1]octan-3-ylamino)-6-(3-cyanopyrrolo[1,2-b]pyridazin-7-yl)-N-((R)-2-fluoro-3-hydroxy-3-methylbutyl) nicotinamide]	351	3
CC(C)(O)[C@H](F)CNC(=O)c1cnc(-c2ccc3cc(C#N)cnn23)cc1N[C@@H]1CCN(S(C)(=O)=O)C1 [Example 53, 6-(3-cyanopyrrolo[1,2-b]pyridazin-7-yl)-N-((R)-2-fluoro-3-hydroxy-3-methylbutyl)-4-(((R)-1-(methylsulfonyl)pyrrolidin-3-yl)amino)nicotinamide]	65	< 1
CC(C)(O)[C@H](F)CNC(=O)c1cnc(-c2ccc3cc(C#N)cnn23)cc1NC1COC1 [Example 54, (R)-6-(3-cyanopyrrolo[1,2-b]pyridazin-7-yl)-N-(2-fluoro-3-hydroxy-3-methylbutyl)-4-(oxetan-3-ylamino)nicotinamide]	26	< 1
CCn1cc(Nc2cc(-c3ccc4cc(C#N)cnn34)ncc2C(=O)NC[C@@H](F)C(C)(C)O)cn1 [Example 56, (R)-6-(3-cyanopyrrolo[1,2-b]pyridazin-7-yl)-4-((1-ethyl-1H-pyrazol-4-yl)amino)-N-(2-fluoro-3-hydroxy-3-methylbutyl)nicotinamide]	13	< 1
CC(C)(O)[C@H](F)CNC(=O)c1cnc(-c2ccc3cc(C#N)cnn23)cc1N[C@@H]1CCOC[C@@H]1F [Example 57, 6-(3-cyanopyrrolo[1,2-b]pyridazin-7-yl)-N-((R)-2-fluoro-3-hydroxy-3-methylbutyl)-4-(((3R,4R)-3-fluorotetrahydro-2H-pyran-4-yl)amino)nicotinamide]	46	< 1
Cn1cc(Nc2cc(-c3ccc4cc(C#N)cnn34)ncc2C(=O)NC[C@@H](F)C(C)(C)O)nn1 [Example 58, (R)-6-(3-cyanopyrrolo[1,2-b]pyridazin-7-yl)-N-(2-fluoro-3-hydroxy-3-methylbutyl)-4-((1-methyl-1H-1,2,3-triazol-4-yl)amino)nicotinamide]	91	< 1
CC(C)(O)[C@H](F)CNC(=O)c1cnc(-c2ccc3cc(C#N)cnn23)cc1Nc1cnsc1 [Example 59, (R)-6-(3-cyanopyrrolo[1,2-b]pyridazin-7-yl)-N-(2-fluoro-3-hydroxy-3-methylbutyl)-4-(isothiazol-4-ylamino)nicotinamide]	57	< 1
COC(=O)C1CC2(CC(NC(=O)c3cnc(-c4ccc5cc(C#N)cnn45)cc3NC(C)C)C2)C1 (stereo not shown) [Example 60, methyl 6-(6-(3-cyano-pyrrolo[1,2-b]pyridazin-7-yl)-4-(isopropylamino)nicotinamido) spiro[3.3]heptane-2-carboxylate]	512	1
CC(C)(O)[C@H](F)CNC(=O)c1cnc(-c2ccc3cc(C#N)cnn23)cc1N[C@@H]1CCC[C@@H](O)C1 [Example 61, 6-(3-cyanopyrrolo[1,2-b]pyridazin-7-yl)-N-((R)-2-fluoro-3-hydroxy-3-methylbutyl)-4-(((1R,3R)-3-hydroxycyclohexyl)amino) nicotinamide]	89	< 1
CO[C@@H]1CCC[C@H](Nc2cc(-c3ccc4cc(C#N)cnn34)ncc2C(=O)NC[C@@H](F)C(C)(C)O)C1 [Example 62, 6-(3-cyanopyrrolo[1,2-b]pyridazin-7-yl)-N-((R)-2-fluoro-3-hydroxy-3-methylbutyl)-4-(((1S,3R)-3-methoxycyclohexyl)amino) nicotinamide]	83	< 1
CC(C)(O)[C@H](F)CNC(=O)c1cnc(-c2ccc3cc(C#N)cnn23)cc1N[C@H]1CCC[C@H](O)C1 [Example 63, 6-(3-cyanopyrrolo[1,2-b]pyridazin-7-yl)-N-((R)-2-fluoro-3-hydroxy-3-methylbutyl)-4-(((1S,3S)-3-hydroxycyclohexyl)amino) nicotinamide]	57	< 1
CC(C)(O)[C@H](F)CNC(=O)c1cnc(-c2ccc3cc(C#N)cnn23)cc1NC1CCCCC1 [Example 64, (R)-6-(3-cyanopyrrolo[1,2-b]pyridazin-7-yl)-4-(cyclohexylamino)-N-(2-fluoro-3-hydroxy-3-methylbutyl) nicotinamide]	70	< 1
CC(C)(O)[C@H](F)CNC(=O)c1cnc(-c2ccc3cc(C#N)cnn23)cc1N[C@@H]1CCC[C@H](O)C1 [Example 65, 6-(3-cyanopyrrolo[1,2-b]pyridazin-7-yl)-N-((R)-2-fluoro-3-hydroxy-3-methylbutyl)-4-(((1R,3S)-3-hydroxycyclohexyl)amino) nicotinamide]	149	2
CC(C)Nc1cc(-c2ccc3cc(C#N)cnn23)ncc1C(=O)NNC(=O)C(C)(C)O [Example 66, 6-(3-cyanopyrrolo[1,2-b]pyridazin-7-yl)-N′-(2-hydroxy-2-methylpropanoyl)-4-(isopropylamino) nicotinohydrazide]	458	46
CC(C)(O)[C@H](F)CNC(=O)c1cnc(-c2ccc3cc(C#N)cnn23)cc1Nc1cnn(C2CC2)c1 [Example 67, (R)-6-(3-cyanopyrrolo[1,2-b]pyridazin-7-yl)-4-((1-cyclopropyl-1H-pyrazol-4-yl)amino)-N-(2-fluoro-3-hydroxy-3-methylbutyl)nicotinamide]	43	< 1
